The source of these data is patent US8163756B2 (priority 2004, dated 2012).

Type in all cases: biochemical
Test [1] addresses T1, B-Raf(V599E) kinase (Homo sapiens, UniProt P15056, V600E). Description: B-Raf(V599E) kinase assay B2 (construct 2 at 2 nM, 1 h pre-incubation). Here is the method: (§1) The test compounds were incubated with the reaction mixtureat 30° C. for 2 h. […] The reaction rate was calculated using the […] time frame. […] IC50 values were calculated from a series of percent inhibition values determined at a range of inhibitor concentrations using software routines as implemented in the GraphPad Prism software package.
Same as assay B1 except that (1) construct 2 was employed at a nominal concentration of 2 nM (2) the reaction was pre-incubated at 30° C. for 1 h prior to initiation with ATP (3) a reading time frame of 0.5 h to 1.5 h.
Target sequence in this assay (P15056 433-726 V600E): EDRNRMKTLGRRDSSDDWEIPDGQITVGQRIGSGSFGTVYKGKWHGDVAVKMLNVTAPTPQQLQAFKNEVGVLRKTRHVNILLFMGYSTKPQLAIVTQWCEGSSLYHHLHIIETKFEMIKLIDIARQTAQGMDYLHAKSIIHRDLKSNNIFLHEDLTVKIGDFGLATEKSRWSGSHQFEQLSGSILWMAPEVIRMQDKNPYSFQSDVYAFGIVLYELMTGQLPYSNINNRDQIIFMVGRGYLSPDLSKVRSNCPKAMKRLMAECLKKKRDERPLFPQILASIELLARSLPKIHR

The target of test [2] is T2, Abl kinase (Homo sapiens, UniProt P00519).
T2 sequence (P00519 229-512): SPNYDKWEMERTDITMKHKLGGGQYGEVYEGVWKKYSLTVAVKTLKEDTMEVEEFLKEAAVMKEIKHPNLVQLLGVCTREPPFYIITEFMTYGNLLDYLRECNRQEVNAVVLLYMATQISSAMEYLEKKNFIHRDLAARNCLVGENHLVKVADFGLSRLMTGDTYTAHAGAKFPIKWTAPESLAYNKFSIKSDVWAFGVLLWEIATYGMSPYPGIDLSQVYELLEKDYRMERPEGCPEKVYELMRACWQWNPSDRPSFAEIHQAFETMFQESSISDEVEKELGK
The test can be described thus: Abl kinase assay A2 (as A1, 1.1 nM enzyme, 2 h pre-incubation, 0.5 mM ATP). As for the experimental part:
(§2) IC50 values were calculated from a series of percent inhibition values determined at a range of inhibitor concentrations using software routines as implemented in the GraphPad Prism software package.

The target in test [3] is T3, phosphorylated p-38-alpha kinase (Homo sapiens, UniProt Q16539). Description: P-38 alpha kinase assay P1 (coupled spectrophotometric, 2 h pre-incubation).
T3 sequence (Q16539 1-360 isoform Q16539-2): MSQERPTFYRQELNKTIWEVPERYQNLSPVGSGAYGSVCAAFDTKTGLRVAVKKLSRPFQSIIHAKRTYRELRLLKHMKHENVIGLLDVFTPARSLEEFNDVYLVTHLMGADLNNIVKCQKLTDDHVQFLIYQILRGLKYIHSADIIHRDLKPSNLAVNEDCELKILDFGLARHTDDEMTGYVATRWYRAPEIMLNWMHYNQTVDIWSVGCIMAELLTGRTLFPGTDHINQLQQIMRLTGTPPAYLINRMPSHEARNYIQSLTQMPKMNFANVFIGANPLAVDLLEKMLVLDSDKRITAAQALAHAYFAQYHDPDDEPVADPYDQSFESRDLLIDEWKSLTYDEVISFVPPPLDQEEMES
Test [4] concerns the target T3, phosphorylated p-38-alpha kinase. The test can be described thus: P-38 alpha kinase assay P2 (as P1, not pre-incubated). The conditions noted are these: method P2 (not pre-incubated). As for the experimental part: Same as assay P1 except that (1) the reaction was not pre-incubated.
Test [5] deals with T2, Abl kinase. The test can be described thus: Abl kinase assay A1 (pyruvate kinase/lactate dehydrogenase coupled, spectrophotometric). The following applies: Method A1. As for the experimental part: as §2
The target in test [6] is T4, KDR kinase (Homo sapiens, UniProt P35968, DEL940-989/E990V). Description: KDR kinase assay K2 (as K1, 2.1 nM enzyme, 2 h pre-incubation, 1.0 mM ATP). The conditions noted are these: Method K2. Here is the method: as §2
T4 sequence (P35968 with tags, fused parts or gaps DEL940-989/E990V): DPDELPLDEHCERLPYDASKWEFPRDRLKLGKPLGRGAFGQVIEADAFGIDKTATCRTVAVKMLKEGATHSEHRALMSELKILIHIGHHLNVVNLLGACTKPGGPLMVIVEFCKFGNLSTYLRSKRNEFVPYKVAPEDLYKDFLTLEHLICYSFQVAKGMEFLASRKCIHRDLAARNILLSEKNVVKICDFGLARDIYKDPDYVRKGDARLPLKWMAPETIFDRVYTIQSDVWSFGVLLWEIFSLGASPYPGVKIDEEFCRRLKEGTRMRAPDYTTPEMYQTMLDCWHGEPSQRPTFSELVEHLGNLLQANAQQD
The target of test [7] is T1, B-Raf(V599E) kinase. The test can be described thus: B-Raf(V599E) kinase assay B1 (construct 1, MEK1 substrate, coupled spectrophotometric). As for the experimental part:
as §1
Target sequence in this assay (P15056 with tags, fused parts or gaps V600E): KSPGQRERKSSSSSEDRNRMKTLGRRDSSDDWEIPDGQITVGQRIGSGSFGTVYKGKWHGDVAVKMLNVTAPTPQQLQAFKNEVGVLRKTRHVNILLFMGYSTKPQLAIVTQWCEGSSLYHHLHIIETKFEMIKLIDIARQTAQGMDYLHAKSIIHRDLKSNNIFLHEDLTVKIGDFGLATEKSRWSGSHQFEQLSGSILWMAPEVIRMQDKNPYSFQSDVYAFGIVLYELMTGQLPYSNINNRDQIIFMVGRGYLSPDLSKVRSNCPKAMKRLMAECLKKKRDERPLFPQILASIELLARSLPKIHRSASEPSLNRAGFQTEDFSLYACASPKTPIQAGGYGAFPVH

In test [8] the target is T4, KDR kinase. The test can be described thus: KDR kinase assay K1 (pyruvate kinase/lactate dehydrogenase coupled, spectrophotometric). The following applies: Method K1; read-out: KDR Data (IC50). As for the experimental part: as §2
The mark [9] stands for this setting: Method A2, read-out: Abl Data (IC50).
Setting [10] is: method P1 (2 h pre-incubation), read-out: P-38 Data.

Structures can show the parent of a compound that is named as a salt.

As to `Cn1c(=O)c(-c2cccc(NC(=O)Nc3cc(C(C)(C)C)nn3-c3ccc4c(c3)CCN4S(C)(=O)=O)c2)cc2cncnc21` [Example 197, 1-(3-t-butyl-1-(1-(methylsulfonyl)indolin-5-yl)-1H-pyrazol-5-yl)-3-(3-(8-methyl-7-oxo-7,8-dihydropyrido[2,3-d]pyrimidin-6-yl)phenyl)urea], the figures for the IC50 (against B-Raf(V599E) kinase [1]; at Abl kinase [2] (setting [9]); in test [3] (setting [10])) were 27 nM, 12 nM and 28 nM, respectively.

Turning to `CC(C)(C)c1cc(NC(=O)Nc2cccc(Oc3cccnc3)c2)n(-c2cc(CC(N)=O)c3ccccc3c2)n1` [Example 86, 1-(1-(4-(2-amino-2-oxoethyl)naphthalen-2-yl)-3-t-butyl-1H-pyrazol-5-yl)-3-(3-(pyridin-3-yloxy)phenyl)urea hydrochloride], the IC50 is 179 nM at B-Raf(V599E) kinase [1], 1 nM on Abl kinase [2] and 24 nM in test [3].

`CC(C)(C)c1cc(NC(=O)Nc2cccc(Cl)c2Cl)n(-c2ccc3[nH]ncc3c2)n1` [Example 121, 1-(3-t-butyl-1-(1H-indazol-5-yl)-1H-pyrazol-5-yl)-3-(2,3-dichlorophenyl)urea]: the IC50 came to 105 nM on B-Raf(V599E) kinase [1], 1000 nM on Abl kinase [2] (setting [9]) and 40 nM in test [3] (setting [10]).

As for `CC(C)(C)c1cc(NC(=O)Nc2cccc(Cl)c2)n(-c2cccc(C#N)c2)n1` [Example 8, 1-(3-t-butyl-1-(3-cyanophenyl)-1H-pyrazol-5-yl)-3-(3-chlorophenyl)urea], the IC50 in test [4] was found to be 25 nM. The inhibition (commonly the percentage by which the read-out fell short of the control) at 10 µM amounted to 81% on Abl kinase [5] (@ 10 μM, read-out: Abl Data (percent inhibition)) and 96% at KDR kinase [6] (@ 10 μM, read-out: KDR Data (percent inhibition)).

As to `CC(C)(C)c1cc(NC(=O)Nc2cccc(Cl)c2Cl)n(-c2ccc3nc[nH]c(=O)c3c2)n1` [Example 195, 1-(3-t-butyl-1-(4-oxo-3,4-dihydroquinazolin-6-yl)-1H-pyrazol-5-yl)-3-(2,3-dichlorophenyl)urea], the IC50 was 298 nM against B-Raf(V599E) kinase [1], 910 nM on Abl kinase [2] (setting [9]) and 46 nM in test [3] (setting [10]).

Consider `CC(C)(C)c1cc(NC(=O)Nc2cccc(Br)c2)n(-c2cccc(C#N)c2)n1` [Example 5, 1-(3-t-butyl-1-(3-cyanophenyl)-1H-pyrazol-5-yl)-3-(3-bromophenyl)urea], for which the IC50 came out at 38 nM in test [4], 2000 nM at Abl kinase [5] (read-out: Abl Data (IC50)), 850 nM on KDR kinase [6] (read-out: KDR Data (IC50)) and 87 nM at B-Raf(V599E) kinase [7].

As for `Cn1c(=O)c(-c2cccc(NC(=O)Nc3cc(C(C)(C)C)nn3-c3ccc4[nH]ccc4c3)c2)cc2cncnc21` [Example 118, 1-(3-t-butyl-1-(1H-indol-5-yl)-1H-pyrazol-5-yl)-3-(3-(8-methyl-7-oxo-7,8-dihydropyrido[2,3-d]pyrimidin-6-yl)phenyl)urea], the IC50 on B-Raf(V599E) kinase [1] worked out at 23 nM; on Abl kinase [2] (setting [9]), 11 nM.

Consider `CC(C)(C)c1cc(NC(=O)Nc2cccc(Cl)c2Cl)n(-c2ccc3cn[nH]c3c2)n1` [Example 120, 1-(3-t-butyl-1-(1H-indazol-6-yl)-1H-pyrazol-5-yl)-3-(2,3-dichlorophenyl)urea], for which the IC50 against B-Raf(V599E) kinase [1] was found to be 214 nM; at Abl kinase [2] (setting [9]), 5100 nM.

With `CC(C)(C)c1cc(NC(=O)Nc2cccc(Oc3cccnc3)c2)n(-c2ccc3c(c2)CC(C(=O)O)NC3)n1` (centres unmarked) [Example 189, 6-(3-t-butyl-5-(3-(3-(pyridin-3-yloxy)phenyl)ureido)-1H-pyrazol-1-yl)-1,2,3,4-tetrahydroisoquinoline-3-carboxylic acid], the IC50 on KDR kinase [8] was 23 nM; against B-Raf(V599E) kinase [1], 918 nM; at Abl kinase [2] (setting [9]) it was 3 nM.
